Assay results reported in US20030125389A1, “Beta-amino acid derivatives useful for the treatment of bacterial infections” (priority 2001, published 2003).

Assays:
[1] = test system: Gram negative and Gram positive bacteria; settings: against Gram negative and Gram positive bacteria; cited from earlier work
[2] = test system: a variety of standard laboratory microorganisms; settings: cited from earlier work
[3] = test system: Escherichia coli ATCC 25922; experiment: Mouse septicemia model; type: in vivo; settings: ATCC25922, ICR male mice, E. coli ATCC 25922 intraperitoneally, compound PO or IV at 1 and 5 hours after inoculation, mortality recorded for 7 days
Description: Escherichia coli ATCC 25922 was used to test the efficacy of compounds in a mouse septicemia model using six ICR male mice per group. Mice were inoculated intraperitoneally with 2×10^5 cfu/mouse in 0.5 ml of Brain-Heart Infusion broth supplemented with 5% mucin. The compounds were tested at 40, 20, 10, 5 and 2.5 mg/kg orally (PO) or at 20, 10, 5 and 2.5 mg/kg intravenously (IV) at 1 and 5 hours after bacterial inoculation. Controls included vehicle control (0.9% NaCl, 10 ml/kg) and an antibiotic control with ampicillin. Mortality was recorded for 7 days, and an ED50 was determined by non-linear regression.

SMILES | ED50 [3] [mg/kg] | further results
CN(CC(=O)O)NC(=O)C[C@H](N)C[C@@H](O)CN [Negamycin, [2-{(3R, 5R)-3,6-diamino-5-hydroxyhexanoyl}-1-methylhydrazino]acetic acid] |  | inhibitory activity [1]: strong inhibitory activity
CN(CC(=O)O)NC(=O)C[C@H](N)CCCN [Deoxynegamycin, D-3,6-diaminiohexanoic acid-2-(carboxymethyl)-2-methylhyrazide] |  | antimicrobial activity in vitro [2]: broad-spectrum antibacterial and antifungal activity
CNC[C@H](F)C[C@@H](N)CC(=O)NN(C)CC(=O)O [Example 7, {N′-[(3R)-Amino-(5R)-fluoro-6-methylaminohexanoyl]-N-methylhydrazino}acetic acid] | < 40 | 
CNC[C@H](O)C[C@@H](N)CC(=O)NN(C)CC(=O)O [Example 1] | < 40 | 
CN(CC(=O)O)NC(=O)C[C@H](N)C[C@@H](F)CN [Example 5, {N′-[(3R)-Amino-6-amino-(5R)-fluorohexanoyl]-N-methylhydrazino}acetic acid] | < 40 | 
